Experimental data as given in patent publication US20040147028A1, “Yeast treatment” (priority 2002, published 2004).
Read-outs that look alike come from different tables or passages of the source.

Experiments:
yeast protoplasts [1] = system: yeast protoplasts
Method: To ensure the competent nature of the formed protoplast to undertake endocytosis, the yeast cells were grown on a modified YEPD media in which the 2% (w/v) dextrose was replaced by 4% (w/v) sucrose as the carbon source to facilitate a mechanism for the absorption and transport of the sucrose C14 by the yeast cells. Protoplasts were formed as described above and isolated again utilising a sorbitol based density gradient. Silicon oil isolation of protoplasts is a convenient method for separating radio labelled cells from a sugar gradient solution. […] Seven micro tubes (400 ul) were prepared for pelletising the protoplasts with each containing 10 ul of Fluorinert FC 77 as a capture solution and 100 ul of Silicon Oil AR 200 (Density of 1.05 g/1) as the media to be used for the separation of sucrose C14 protoplasts. In the experiment 40 ul of a 1M sucrose (made in a 50 ml volumetric flask) was used to which was added 2 ul of the sucrose C14 stock. Then 1.2 ml of the protoplast suspension was placed into a 1.5 ml eppendoff tube and 12 ul of the 1M sucrose C14 solution was placed in the cap. The incubation time started when the cap was sealed onto the eppendoff tube. Next, 100 ul aliquots of the protoplasts were taken at 10 minute intervals and placed sequentially into a series of the prepared 400 ul tubes containing the silicon oil gradients and spun at 7000 rpm for 10 second. The tubes were removed at each time interval and cut through the upper silicon oil fraction to capture the formed protoplast pellet and resuspended in 100 ul of Milli Q water in a scintillation tube containing 3 ml of scintillation fluid. As a standard, 100 ul volumes of the 1M sucrose containing the sucrose C14 were taken for counting but not spun through the silicon oil as were the protoplasts without the isotope but these spun through the silicon oil and counted to avoid quenching correction of the protoplast extract.
A graph of time vs. counts, recorded as nmoles of absorbed sucrose was then prepared to confirm the uptake of our sucrose isotope by the competent protoplasts.
Standards were prepared and measured for background scintillation without the added isotope and 100 ul of a 1M sucrose standard continuing the isotope was measured to obtain counts for a 1 umole solution of sucrose.

yeast protoplasts [2] = assay: Endocytosis study: yeast protoplasts incubated with dye-bound liposomes, confocal and transmission electron microscopy; type: cell-based, Saccharomyces cerevisiae (YNN 281); settings: dye incubated alone with the formed protoplasts, unencapsulated
Method: An 0.8 ml aliquot of protoplast suspension was dispensed through a large orifice pipette tip (ensuring minimal disturbance of the fragile protoplast) into a sterilised eppendoff tube to which was added 0.8 ml of the liposome suspension obtained from the gel filtration. Both solutions were of equivalent densities to ensure the stability of the protoplast and gently mixed prior to incubation. The tubes were individually wrapped in foil and embedded on their side in a sheet of Styrofoam which was also wrapped in foil to ensure the tubes would remain in place and then immersed into a water bath a 37° C. for the 90 minute incubation.
A 20 ul sample of the incubated suspension was applied to a microscope slide with the edges of the cover slip sealed with an acrylic resin to inhibit drying out of the sample. The slides once made were stored in the dark to reduce the risk of a loss in fluorescence of the FITC conjugate and viewed immediately under phase contrast and fluorescence using the confocal microscope.
The technique used for preparing sections of block-mounted cells for image analysis required 0.5 ml of the protoplast-liposome suspension to be fixed with 50 ul of 1.25% (v/v) glutaraldehyde and 1.0% (w/v) paraformaldehyde in a 0.2M cacodylate buffer at pH 7.2 for 1 hour. The fixed suspension was then mixed with a similar volume of 5.0% agarose and placed at 4° C. for 20 minutes to set. […]

Compound	I-Sucrose 14 C uptake (yeast protoplasts [1]; time 1 min)	I-Sucrose 14 C uptake (yeast protoplasts [1]; time 10 min)	I-Sucrose 14 C uptake (yeast protoplasts [1]; time 20 min)	I-Sucrose 14 C uptake (yeast protoplasts [1]; time 30 min)	I-Sucrose 14 C uptake (yeast protoplasts [1]; time 40 min)	I-Sucrose 14 C uptake (yeast protoplasts [1]; time 50 min)	I-Sucrose 14 C uptake (yeast protoplasts [1]; time 60 min)	passive migration across the plasma membrane of protoplasts (false positive) (yeast protoplasts [2])
O[14CH2]C1OC(O[C@@]2([14CH2]O)OC([14CH2]O)C(O)C2O)C(O)C(O)C1O (stereo partly drawn) [I-Sucrose 14 C, I-sucrose-ul-14C]	1.87 nmol	6.62 nmol	13.4 nmol	17.9 nmol	26.6 nmol	35.9 nmol	56.9 nmol	
O=C(O)CN(CC(=O)O)Cc1cc2c(cc1O)Oc1cc(O)c(CN(CC(=O)O)CC(=O)O)cc1C21OC(=O)c2ccccc21 [calcein]								some passive migration of this molecule across the plasma membrane
fluorescein isothiocyanate dextran [formula 13]								eliminated this situation
